What was measured:
Type in all cases: physicochemical
[1] = Storage in closed containers at ambient conditions for several months, visual phase check; details: 20-25 C, atmospheric pressure
Text: Behaviors inconsistent with a single phase liquid include liquid/liquid separation of layers, or liquid/solid striation, in each case noticeable as such to the unaided eye. […] The single phase liquid need not necessarily be a true solution in the physical sense but will appear to be a single phase to the unaided eye as described above.
The amine-herbicide formulations prepared in Examples 1, 2, 3, and 4 were stored in closed containers at ambient conditions (room temperature varying from 20-25 C, atmospheric pressure) for several months.

[2] = Density of max-load solutions at ambient temperature
[3] = 2 mL samples spotted onto glass plates, left uncovered at ambient conditions for approximately two months; details: 2 mL on glass plate, 20°-25° C.
Description: To evaluate the herbicidal compositions under more stringent conditions, we increased their surface area and exposed them to ambient conditions at room temperature, atmospheric pressure, and uncovered over an extended period of time: 2 mL samples of the five liquefied combinations were spotted onto glass plates and left uncovered at ambient conditions (temperatures within a range of 20°-25° C.) for approximately two months.

[4] = Maximum loading of herbicide amine salt in water (HCl titration of amine, Karl-Fischer water); details: glufosinate amine salts in water
Text: F is a factor that takes into account the amount of base or acid groups on the amine or acid, respectively.

Compound	physical state after storage (visual presence of salt solids) [1]	density of max-load solution [2] [g/mL]	physical state after open exposure on glass plate [3]	Max Load amine [4] [g/L]	Max Load g ae/L [4] [g ae/L]
CCCCN(CCCC)CCCC.O=C(O)COc1ccc(Cl)cc1Cl [TNBA/2,4-D]	formed single phase liquids	1.1	turned into a crystallized mass		
CP(=O)(O)CCC(N)C(=O)O.N (centres unmarked) [NH3/glufosinate]				1340	1339
COc1c(Cl)ccc(Cl)c1C(=O)O [MMEA/dicamba]	formed single phase liquids	1.31	remained liquefied		
CN(C)Cc1ccccc1.O=C(O)COc1ccc(Cl)cc1Cl [BDMA/2,4-D]	formed single phase liquids	1.25	turned into a crystallized mass		

— patent US11109591B2, “Single phase liquids of alkanolamine salts of dicamba” (Taminco BVBA, priority 2017, dated 2021)
